From patent US11458132B2, “Quinolin-2(1H)-one inhibitors of Late SV40 Factor” (TRUSTEES OF BOSTON UNIVERSITY, priority 2020, dated 2022)

Columns and labels:
RPE cells = experiment: Microtubule sedimentation assay; type: cell-based
Description: Cell lysate preparation: For microtubule sedimentation assays, cells were treated as indicated in the figure legends, washed with PBS and incubated in 250 μl of microtubule sedimentation assay lysis buffer (100 mM PIPES pH 6.8, 2 M glycerol, 2 mM EGTA, 5 mM MgCl2, 0.1% Triton X-100) supplemented with 1 μM taxol, protease inhibitor cocktail (1:200, Abcam, ab201111) and phosphatase inhibitor cocktail (1:100, Abcam, ab201115) for 20 minutes at 37° C. Two hundred μl of scraped lysate was centrifuged at 21,000×g for 10 minutes at room temperature. Supernatants were saved as soluble fractions. Pellets were resuspended in 200 μl RIPA buffer (50 mM Tris HCl pH 8.0, 150 mM NaCl, 1% IGEPAL CA630, 0.05% deoxycholic acid) supplemented with 1.05% SDS, protease inhibitor cocktail (1:200) and phosphatase inhibitor cocktail (1:100) and incubated at 100° C. for 15 minutes. Pellet suspensions were centrifuged as before and supernatants were saved as pellet fractions.
Gel electrophoresis and immunoblotting: Microtubule sedimentation fractions and MLC2 analysis samples were separated by electrophoresis through tris-glycine and tricine polyacrylamide gels, respectively, which were transferred to PVDF membranes. Membranes with microtubule sedimentation fractions and MLC2 analysis samples were blocked in 5% milk in TBST and in 5% BSA in TBST, respectively. After overnight incubation with primary antibody at 4° C., the membranes were washed and incubated with secondary antibody for 1 hour at room temperature. Primary antibodies included anti-α-tubulin (1:2,000, Thermo Fisher Scientific, PA529444), anti-acetylated tubulin (1:1,000, Sigma-Aldrich, T7451), anti-phospho MYL9 (1:200, Thermo Fisher Scientific, PA517727), and anti-β-actin (1:5,000, Sigma-Aldrich, A1978). Secondary antibodies included Goat anti-Rabbit HRP (Thermo Fisher Scientific, 31460; 1:10,000 for anti-α-tubulin; 1:5,000 for anti-phospho MYL9), and Goat anti-Mouse HRP (Thermo Fisher Scientific, 62-6520; 1:5,000 for anti-acetylated tubulin; 1:10,000-1:20,000 for anti-β-actin). Membranes were placed into Pierce™ ECL Western Blotting Substrate (Thermo Fisher Scientific, 32106). Autoradiography film was exposed to each membrane for various times to ensure acquisition of non-saturated exposures. Band intensities were quantified from scanned films by densitometry using ImageJ.

[1] = Plasma protein binding (PPB), mouse; type: in vitro ADME
MC38 cells = experiment: Syngeneic MC38 xenograft model in C57BL/6 mice; type: in vivo
Excerpt: Syngeneic and allogeneic xenograft models: We used 8-12 weeks-old athymic female mice for the allogeneic xenograft model and C57BL/6 mice for a syngeneic xenograft model, as described previously^26,27. All the mice were obtained from The Jackson Laboratory and housed at Boston University Medical Center based on the approval from the Institutional Animal Care and Use Committee. Each mouse was implanted subcutaneously on the dorsal surface and was monitored for tumor growth as measured with a VWR Digital Caliper. The tumor volume was calculated twice a week using the equation: length×width×height.
The mice were randomly separated into two groups once tumor volumes reached 100 mm^3. The FQI2-34 was suspended in a mixture of ethanol and DMSO. The mixture was agitated until the compound had completely dissolved. This solution was further diluted in 20% PEG 400 and water to give a final concentration of 2 mg/ml. FQI2-34 or vehicle was injected intraperitoneally daily at 5 mg/kg for 5 days, followed by a break for 2 days. After 21 days, both groups of mice were sacrificed, and the tumors were harvested.
Cell culture and other reagents: HT-29 cells were obtained from ATCC and grown in the Roswell Park Memorial Institute (RPMI) medium supplemented with 10% FBS and penicillin and streptomycin. Cells were injected with the growth-factor poor Matrigel (Millipore, catalogue number DLW354263) using a 23-gauge needle for a total volume of 200 microliters. The MC38 cell line was obtained from ATCC and grown in RPMI medium supplemented with 10% FBS and penicillin and streptomycin.
IHC was performed on the paraffin-embedded tumors as described previously^26-28. The manufacturer's protocol was used along with reagents from the Abcam Mouse and Rabbit Specific HRP/DAB IHC Detection Kit—Micro-polymer (ab236466). Primary antibodies and their dilutions used to detect the respective proteins were: Axin2 (Abcam, #ab32197, 1:100), β-catenin (BD Biosciences, #610154, 1:100), LSF (BD Biosciences, #610818, 1:100), SOX9 (Abcam, #ab185230, 1:100), Ki-67 (Cell Signaling, #8D5, 1:100).
All images and quantification were performed using the Nikon Eclipse TE2000 Inverted Microscope with the color camera at the Boston University School of Medicine (BUSM) Imaging Core. Random high-power field (hpf) images of every tumor sample were obtained. For quantification the signal was converted to grayscale, and the number and intensity of pixels were analyzed as integrated density by using Fiji. The integrated density of all the images was normalized to its area. The images were processed in ImageJ (National Institutes of Health, Bethesda, Md.) to quantitate the expression of SOX-9, AXIN-2, and LSF. Regions of interest were drawn and the expression was measured using integrated density normalized to the surface area. The average normalized integrated image densities from multiple hpfs were used to perform the correlational analysis between expression levels of pairs of proteins.

Huh7 cells = experiment: Growth inhibition curves in Huh7 cells; type: cell-based; settings: Homo sapiens, Huh-7
colorectal cancer tumor = experiment: Colorectal cancer tumor size and tumor tissue, FIGS. 22-24; type: in vivo, mouse; settings: 15 mg/kg treatment compared with the other concentration
[2] = xenografts, immunohistochemistry

Compound	time after addition at which a drop in pelleted tubulin is observed (RPE cells; 4 μM FQI1) [min]	microtubule stability and α-tubulin acetylation in the microtubule fraction (RPE cells; 4 μM FQI1 (15- and 30-minute pellets), 1 μM nocodazole or taxol 30 minutes)	fraction unbound [1]	tumor volumes, lower than controls (MC38 cells; day 14 and day 21) [fold]	CRC mass on H&E stain (MC38 cells; xenografts)	Ki-67 levels (MC38 cells; [2])	reduction in AXIN2 expression levels (MC38 cells; [2]) [fold]	reduction in SOX9 expression levels (MC38 cells; [2]) [fold]	reduction in number of cells with nuclear β-catenin (MC38 cells; [2]) [fold]	GI50 (Huh7 cells) [nM]	effectiveness on colorectal cancer tumor size versus time (colorectal cancer tumor)
CCOc1ccccc1C1CC(=O)Nc2cc3c(cc21)OCO3 (centres unmarked) [FQI1, 8-(2-ethoxyphenyl)-7,8-dihydro-[1,3]dioxolo[4,5-g]quinolin-6(5H)-one]	1	increase in the amount of acetylated α-tubulin in the microtubule fraction									
CCOc1cc(N(C)C)ccc1-c1cc(=O)[nH]c2cc3c(cc12)OCO3 [FQI2-34, 8-(4-(dimethylamino)-2-ethoxyphenyl)-[1,3]dioxolo[4,5-g]quinolin-6(5H)-one]			0.07	~2	substantial reduction in CRC mass	suppressed	~2	~2	2.3	22.2	not as effective
